From ChEMBL document CHEMBL5113368, “Meroterpenoids produced by fungi: Occurrence, structural diversity, biological activities, and their molecular targets” (Eur J Med Chem, 2021)
Values belong to the compound of their own block, whether it stands above or below them.

What was measured:
[1] = target: T1, Prostaglandin G/H synthase 2 (Homo sapiens, UniProt P35354); test: Inhibition of COX-2 (unknown origin) by fluorescent inhibitor screening assay
T1 sequence (P35354 whole entry): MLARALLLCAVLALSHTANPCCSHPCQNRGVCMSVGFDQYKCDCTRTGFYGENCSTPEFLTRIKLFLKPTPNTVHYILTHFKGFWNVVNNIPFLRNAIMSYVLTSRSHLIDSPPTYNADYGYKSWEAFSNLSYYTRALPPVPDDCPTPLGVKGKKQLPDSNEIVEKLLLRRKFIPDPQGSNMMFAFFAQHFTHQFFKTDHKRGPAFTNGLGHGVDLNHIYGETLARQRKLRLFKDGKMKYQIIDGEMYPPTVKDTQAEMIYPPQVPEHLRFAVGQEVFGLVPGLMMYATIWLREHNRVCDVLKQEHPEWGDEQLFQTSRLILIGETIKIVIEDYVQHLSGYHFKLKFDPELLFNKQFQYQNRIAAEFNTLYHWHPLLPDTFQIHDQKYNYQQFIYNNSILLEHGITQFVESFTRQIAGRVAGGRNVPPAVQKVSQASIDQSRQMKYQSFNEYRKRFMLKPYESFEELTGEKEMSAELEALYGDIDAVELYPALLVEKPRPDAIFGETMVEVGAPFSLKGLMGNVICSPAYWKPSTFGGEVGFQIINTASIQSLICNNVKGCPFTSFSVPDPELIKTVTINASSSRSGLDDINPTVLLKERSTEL

KB = test: Cytotoxicity against human KB cells assessed as cell growth inhibition; type: functional, cell-based
NCI-H187 = test: Cytotoxicity against human NCI-H187 cells assessed as cell growth inhibition; type: functional, cell-based
Staphylococcus aureus = test: Antibacterial activity against Staphylococcus aureus assessed as bacterial growth inhibition; type: functional, organism-based
[2] = target: T2, Pancreatic triacylglycerol lipase (Sus scrofa, UniProt P00591); test: Inhibition of porcine pancreatic lipase using p-Nitrophenyl butyrate substrate incubated for 15 mins by spectrophotometer analysis
T2 sequence (P00591 whole entry): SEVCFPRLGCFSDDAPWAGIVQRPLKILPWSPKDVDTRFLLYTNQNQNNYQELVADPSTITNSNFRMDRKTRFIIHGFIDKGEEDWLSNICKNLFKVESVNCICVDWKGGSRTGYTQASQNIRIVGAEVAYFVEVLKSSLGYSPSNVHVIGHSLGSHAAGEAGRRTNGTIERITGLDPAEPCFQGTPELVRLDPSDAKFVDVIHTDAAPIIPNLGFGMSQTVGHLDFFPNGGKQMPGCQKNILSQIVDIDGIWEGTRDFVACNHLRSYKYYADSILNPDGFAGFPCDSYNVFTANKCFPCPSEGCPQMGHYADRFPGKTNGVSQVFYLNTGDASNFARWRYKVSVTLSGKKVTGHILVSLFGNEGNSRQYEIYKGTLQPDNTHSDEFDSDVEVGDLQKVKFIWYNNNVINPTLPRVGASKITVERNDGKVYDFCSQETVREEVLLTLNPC

[3] = target: T1, Prostaglandin G/H synthase 2; test: Inhibition of human recombinant COX-2 pretreated with compound for 10 mins followed by substrate addition for 10 mins by fluorescent inhibitor screening assay
Acetylcholinesterase = Acetylcholinesterase (Homo sapiens, UniProt P22303); test: Inhibition of AChE (unknown origin)
Chain of Acetylcholinesterase (P22303 whole entry): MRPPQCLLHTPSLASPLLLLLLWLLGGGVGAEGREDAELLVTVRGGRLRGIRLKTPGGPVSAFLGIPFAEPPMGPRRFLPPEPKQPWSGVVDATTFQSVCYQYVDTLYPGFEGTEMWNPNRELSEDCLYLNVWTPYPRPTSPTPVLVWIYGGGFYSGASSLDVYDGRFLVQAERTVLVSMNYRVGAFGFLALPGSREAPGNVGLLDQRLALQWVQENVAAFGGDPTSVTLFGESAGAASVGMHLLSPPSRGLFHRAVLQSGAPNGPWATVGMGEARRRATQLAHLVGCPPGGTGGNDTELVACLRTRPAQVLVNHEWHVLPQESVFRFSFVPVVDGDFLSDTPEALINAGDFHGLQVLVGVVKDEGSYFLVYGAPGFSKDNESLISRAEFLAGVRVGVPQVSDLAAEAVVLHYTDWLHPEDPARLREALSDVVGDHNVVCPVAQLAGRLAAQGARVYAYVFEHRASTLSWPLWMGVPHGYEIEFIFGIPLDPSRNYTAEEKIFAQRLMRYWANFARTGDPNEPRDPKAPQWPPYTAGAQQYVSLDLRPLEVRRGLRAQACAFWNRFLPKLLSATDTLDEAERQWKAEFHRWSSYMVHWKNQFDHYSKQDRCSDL

[4] = target: T1, Prostaglandin G/H synthase 2; test: Inhibition of COX-2 (unknown origin)
[5] = Inhibition of Saccharomyces cerevisiae alpha-glucosidase using p-nitrophenyl-alpha-D -glucopyranoside as substrate pre-incubated for 10 mins followed by substrate addition measured after 15 mins by absorbance based analysis
RAW264.7 = test: Anti-inflammatory activity in mouse RAW264.7 cells assessed as inhibition of NO production; type: functional, cell-based
K562 = test: Cytotoxicity against human K562 cells assessed as cell growth inhibition by CCK-8 method; type: functional, cell-based

Structure (SMILES): C/C(=C\CC/C(C)=C/CCCC1(O)Oc2ccc(O)cc2C1=O)CO (stereo not drawn)
- IC50 [1]: 1.38 µM

Structure (SMILES): CC(=O)O[C@H]1C[C@@H](O)[C@@]2(C)[C@@H](CC[C@]3(C)[C@@H]2[C@@H](O)C[C@]2(C)Oc4oc(C)cc(=O)c4C[C@@H]32)C1(C)C
- IC50 (KB): 32.7 µM
- IC50 (NCI-H187): 32.7 µM

Structure (SMILES): C=C(C)C1CCC2(C(=O)OCC)CC13Oc1c(C/C=C(/CC/C=C(\C)CCC=C(C)C)C(=O)O)cc(O)cc1-c1c(O)ccc(c13)O2 (racemic)
- IC50 (Staphylococcus aureus): 5.43 µM

Structure (SMILES): CC(C)=CCC/C(C)=C/CCC1=C[C@]2(OC1=O)c1cc(O)ccc1OC(=O)[C@@]2(CC/C=C(\C)CCC=C(C)C)CC(=O)c1cc(O)ccc1O (racemic)
- IC50 [2]: 27.3 µM

Structure (SMILES): CC(C)=CCC/C(C)=C/CCC1=C[C@]2(OC1=O)c1cc(O)ccc1OC(=O)[C@@]2(CCC=C(C)C)CC(=O)c1cc(O)ccc1O (racemic)
- IC50 [3]: 1.29 µM

Structure (SMILES): CC(=O)O[C@@H]1C[C@@]2(C)Oc3cc(C)oc(=O)c3C[C@@H]2[C@@]2(C)C=CC(=O)C(C)(C)[C@H]12
- IC50 (Acetylcholinesterase): 13.6 µM

Structure (SMILES): CC(C)=CCCC1=C[C@]2(OC1=O)c1cc(O)ccc1OC(=O)[C@@]2(CC/C=C(\C)CCC=C(C)C)CC(=O)c1cc(O)ccc1O (racemic)
- IC50 [3]: 1.29 µM

Structure (SMILES): C/C(=C/CC/C(C)=C/CC[C@]1(C(=O)O)CC(=O)c2cc(O)ccc2O1)C(=O)O
- IC50 [1]: 1.05 µM

Structure (SMILES): C=C(C)C1CCC2(C(=O)OCC)CC13Oc1cc(C/C=C(/CC/C=C(\C)CCC=C(C)C)C(=O)O)c(O)cc1-c1c(O)ccc(c13)O2 (racemic)
- IC50 (K562): 6.68 µM
- IC50 (Staphylococcus aureus): 5.43 µM

The next lines start with the values.

- IC50 [1]: 4.84 µM
Structure (SMILES): C/C(=C\CC/C(C)=C/C/C=C(/CC(=O)c1cc(O)ccc1O)C(=O)O)CO

- IC50 [2]: 4 µM
Structure (SMILES): CC(C)=CCC/C(C)=C/CCC1=C[C@@]2(OC1=O)c1cc(O)ccc1OC(=O)[C@]2(CC/C=C(\C)CCC=C(C)C)CC(=O)c1cc(O)ccc1O

- IC50 [1]: 3.47 µM
Structure (SMILES): C/C(=C/CC/C(C)=C/CC/C(=C/C(=O)c1cc(O)ccc1O)C(=O)O)CO

- IC50 [2]: 2.5 µM
Structure (SMILES): CC(C)=CCC/C(C)=C/CCC1=C[C@]2(OC1=O)c1cc(O)ccc1OC(=O)[C@@]2(CC/C=C(\C)CCC=C(C)C)CC(=O)c1cc(O)ccc1O

- IC50 [4]: 25.5 µM
Structure (SMILES): O=C1C[C@]23CC[C@H](O)[C@]2(COC3=O)c2c(O)ccc(O)c21

- IC50 [5]: 40.8 µM
Structure (SMILES): COC(=O)[C@H](Cc1ccccc1)N1Cc2c(cc(O)c(C/C=C(\C)CC/C=C(\C)C(=O)O)c2O)C1=O

- IC50 (RAW264.7): 6.1 µM
Structure (SMILES): CC1(C)CCC[C@@]23C[C@@](CC(=O)c4cc(O)ccc4O)(CC[C@H]12)C(=O)O3
